Experimental data: ChEMBL document CHEMBL3860104, “Fragment-Based Approach to the Development of an Orally Bioavailable Lactam Inhibitor of Lipoprotein-Associated Phospholipase A2 (Lp-PLA2)” (J Med Chem, 2016)
Converted amounts (≈) assume the structure as drawn. One block for each compound: values may come before it.

Experiments:
[1] = molecular target: T1, Platelet-activating factor acetylhydrolase (Homo sapiens, UniProt Q13093)
T1 sequence (Q13093 whole entry): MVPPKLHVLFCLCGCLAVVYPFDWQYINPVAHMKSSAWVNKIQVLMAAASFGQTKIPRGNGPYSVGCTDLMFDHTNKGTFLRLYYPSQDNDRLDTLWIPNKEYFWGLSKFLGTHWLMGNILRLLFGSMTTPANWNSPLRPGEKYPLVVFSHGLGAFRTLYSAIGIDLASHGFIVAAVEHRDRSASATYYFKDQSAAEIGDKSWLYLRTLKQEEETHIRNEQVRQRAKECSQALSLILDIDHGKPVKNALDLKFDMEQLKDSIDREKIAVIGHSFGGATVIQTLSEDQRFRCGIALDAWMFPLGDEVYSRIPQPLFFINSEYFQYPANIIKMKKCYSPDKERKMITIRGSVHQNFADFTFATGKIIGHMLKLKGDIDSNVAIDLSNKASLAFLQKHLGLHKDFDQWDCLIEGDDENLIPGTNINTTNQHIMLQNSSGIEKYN
Description: Inhibition of recombinant human Lp-PLA2 incubated for 20 mins by Thio-PAF assay

[2] = molecular target: T1, Platelet-activating factor acetylhydrolase; remark: listed apart in the source
Description: Inhibition of recombinant human Lp-PLA2 pre-incubated for 30 mins before PED6 fluorogenic substrate

[3] = molecular target: T1, Platelet-activating factor acetylhydrolase; remark: listed apart in the source
Description: Inhibition of Lp-PLA2 in whole human plasma pre-incubated for 15 mins before 2-thio-PAF substrate addition

[4] = Lipophilicity, log D of the compound by chromatography; assay type: physicochemical
[5] = Stability in rat blood assessed as compound remaining level; assay type: ADME, tissue-based
[6] = Permeability at pH 7.4 by PAMPA method; assay type: ADME; conditions: read-out: permeability
[7] = Protein binding in rat plasma at 10 uM incubated for 4 hrs by LC/MS-MS based rapid equilibrium dialysis method; assay type: ADME, cell-free; conditions: read-out: PPB (converted)
[8] = Solubility in pH 7.4 PBS by CLND assay
Cytochrome P450 3A4 = Cytochrome P450 3A4 (Homo sapiens, UniProt P08684); experiment: Inhibition of CYP3A4 (unknown origin) expressed in Escherichia coli co-expressing human NADPH reductase using both 7-benzyloxyquinolone and diethoxyfluorescein substrate in presence of NADPH regenerating system incubated for 10 mins by spectrofluorometry; assay type: ADME
[9] = Clearance in Han Wistar rat at 1 mg/kg, iv or 3 mg/kg, po administered as bolus dose by LC/MS-MS method; assay type: ADME, organism-based; conditions: in vivo
[10] = Volume of distribution at steady state in Han Wistar rat at 1 mg/kg, iv or 3 mg/kg, po administered as bolus dose by LC/MS-MS method; assay type: ADME, organism-based; conditions: in vivo, read-out: Vdss
[11] = Half life in Han Wistar rat at 1 mg/kg, iv or 3 mg/kg, po administered as bolus dose by LC/MS-MS method; assay type: ADME, organism-based; conditions: in vivo
[12] = Oral bioavailability in Han Wistar rat at 3 mg/kg administered as bolus dose by LC/MS-MS method; assay type: ADME, organism-based; conditions: in vivo
[13] = Protein binding in dog plasma at 10 uM incubated for 4 hrs by LC/MS-MS based rapid equilibrium dialysis method; assay type: ADME, cell-free, Canis lupus familiaris; conditions: read-out: PPB (converted)
[14] = Clearance in Beagle dog at 0.5/1 mg/kg, iv or 0.5 mg/kg, po by LC/MS-MS method; assay type: ADME, organism-based, Canis lupus familiaris; conditions: in vivo
[15] = Volume of distribution at steady state in Beagle dog at 0.5/1 mg/kg, iv or 0.5 mg/kg, po by LC/MS-MS method; assay type: ADME, organism-based, Canis lupus familiaris; conditions: in vivo, read-out: Vdss
[16] = Solubility of the compound by quantitative NMR method; assay type: physicochemical
[17] = Intrinsic clearance rat liver microsomes at 30 ug/mL pre-incubated for 7 mins before NADPH addition by LC/MS-MS method; assay type: ADME
[18] = Half life in Beagle dog at 0.5/1 mg/kg, iv or 0.5 mg/kg, po by LC/MS-MS method; assay type: ADME, organism-based, Canis lupus familiaris; conditions: in vivo
[19] = Oral bioavailability in Beagle dog at 0.5 mg/kg by LC/MS-MS method; assay type: ADME, organism-based, Canis lupus familiaris; conditions: in vivo

Chain of Cytochrome P450 3A4 (P08684 whole entry): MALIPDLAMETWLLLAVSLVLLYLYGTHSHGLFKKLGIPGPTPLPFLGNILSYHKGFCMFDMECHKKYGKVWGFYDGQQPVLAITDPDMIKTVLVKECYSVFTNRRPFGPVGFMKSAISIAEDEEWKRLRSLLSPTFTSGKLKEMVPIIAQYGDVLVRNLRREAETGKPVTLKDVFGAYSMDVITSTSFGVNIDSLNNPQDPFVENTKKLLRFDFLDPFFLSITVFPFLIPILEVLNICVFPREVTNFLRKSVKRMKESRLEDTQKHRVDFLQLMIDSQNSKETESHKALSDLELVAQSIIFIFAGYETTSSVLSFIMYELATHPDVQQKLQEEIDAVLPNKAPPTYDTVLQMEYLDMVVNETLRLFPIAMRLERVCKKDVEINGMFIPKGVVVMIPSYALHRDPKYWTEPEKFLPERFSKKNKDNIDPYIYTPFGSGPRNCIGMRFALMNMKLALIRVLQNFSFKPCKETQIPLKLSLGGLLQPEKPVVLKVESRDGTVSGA

SMILES: CC(C)C1CC(=O)N(CCOc2ccc(F)c(C#N)c2)C1 (racemic)
IC50 [1]: 1.9 µM

SMILES: CC1(C)CN(CCOc2ccc(F)cc2)C(=O)N1
IC50 [2]: 39 µM

SMILES: CC(C)[C@]1(C)CC(=O)N(CCOc2ccc(F)c(C#N)c2)C1
IC50 [3]: 6.2 µM
IC50 [1]: 2.3 µM

SMILES: CC1(C2CC(=O)N(CCOc3ccc(F)c(C#N)c3)C2)CCNCC1 (racemic; form 1)
chromatographic logD [4]: 1.5

SMILES: CN1CC(=O)N(CCOc2ccccc2)C1=O
IC50 [2]: 1000 µM

SMILES: N#Cc1cc(OCCN2CC(c3ccccc3)CC2=O)ccc1F (racemic)
IC50 [1]: 0.86 µM

SMILES: CC1(C)CC(=O)N(CCOc2ccc(F)cc2)C1
IC50 [2]: 11 µM

SMILES: CCN(CC)CCN(Cc1ccc(-c2ccc(C(F)(F)F)cc2)cc1)C(=O)Cn1c(SCc2ccc(F)cc2)nc(=O)c2c1CCC2 [DARAPLADIB]
chromatographic logD [4]: 6.3
solubility kinetic [8]: 8 µM (≈ 5.33 µg/mL)

SMILES: CN1C(=O)N(CCOc2ccccc2)C(=O)C1(C)C
IC50 [2]: 20 µM

SMILES: C[C@@]1(c2ccccc2)CC(=O)N(CCOc2ccc(F)c(C#N)c2)C1
IC50 [1]: 1.6 µM

SMILES: CC(=O)N1CCC(C)(C2CC(=O)N(CCOc3ccc(F)c(C#N)c3)C2)CC1 (racemic)
chromatographic logD [4]: 2.9
IC50 [3]: 0.66 µM
IC50 [2]: 0.25 µM

SMILES: CC(C)(C)C1CC(=O)N(CCOc2ccc(F)c(C#N)c2)C1 (racemic)
IC50 [3]: 5.1 µM
IC50 [1]: 0.98 µM

SMILES: CC1(C2CC(=O)N(CCOc3ccc(F)c(C#N)c3)C2)CCNCC1.Cl (racemic; form 2)
Papp [6]: < 3 nm/s
clearance [9]: 0.9 L/h/kg
Vd [10]: 2 L/kg
half-life [11]: 2.4 h
logD [4]: 1.5
fraction unbound at 4 h, 10 µM [7]: 0.81
bioavailability [12]: < 5%
solubility kinetic [8]: 242 µM
IC50 (Cytochrome P450 3A4): > 50 µM

SMILES: C[C@]1(c2ccccc2)CC(=O)N(CCOc2ccc(F)c(C#N)c2)C1
IC50 [1]: 1 µM

SMILES: CC(C)C1(C)CC(=O)N(CCOc2ccc(F)c(C#N)c2)C1 (racemic)
IC50 [1]: 2 µM

SMILES: CC1(C)CCC(=O)N(CCOc2ccc(F)cc2)C1
IC50 [2]: 10 µM

SMILES: O=C1NC2(CCCCC2)C(=O)N1CCOc1ccc(F)cc1
IC50 [2]: 14 µM

SMILES: CC(C)[C@@]1(C)CC(=O)N(CCOc2ccc(F)c(C#N)c2)C1
IC50 [3]: 13 µM
IC50 [1]: 5.4 µM

SMILES: CN1CCC(C)(C2CC(=O)N(CCOc3ccc(F)c(C#N)c3)C2)CC1.Cl (racemic)
clearance [9]: 1.44 L/h/kg
clearance [14]: 0.516 L/h/kg
Vd [10]: 3.2 L/kg
half-life [11]: 1.8 h
Vd [15]: 2.5 L/kg
bioavailability [12]: 52%
bioavailability [19]: 76%
half-life [18]: 3.2 h

SMILES: CC1(C)CC(=O)N(CCOc2ccc(F)c(C#N)c2)C1
IC50 [1]: 15 µM
IC50 [2]: 3 µM

Further lines, results first:

chromatographic logD [4]: 2.8
Stability [5]: 100%
SMILES: CC1(C2CC(=O)N(CCOc3ccc(F)c(C#N)c3)C2)CCS(=O)(=O)CC1 (racemic)

Papp [6]: 170 nm/s
chromatographic logD [4]: 3.4
IC50 [3]: 0.1 µM
fraction unbound at 4 h, 10 µM [7]: 0.7
solubility kinetic [8]: > 450 µM
IC50 (Cytochrome P450 3A4): > 50 µM
IC50 [2]: 0.086 µM
SMILES: CC1([C@@H]2CC(=O)N(CCOc3ccc(F)c(F)c3)C2)CCS(=O)(=O)CC1

chromatographic logD [4]: 3.1
IC50 [3]: 1.5 µM
IC50 [2]: 0.76 µM
SMILES: CC1(C2CC(=O)N(CCOc3ccc(F)cc3)C2)CCS(=O)(=O)CC1 (racemic)

clearance [9]: 1.32 L/h/kg
Vd [10]: 0.63 L/kg
half-life [11]: 0.35 h
chromatographic logD [4]: 3.4
IC50 [3]: 0.29 µM
bioavailability [12]: 47%
IC50 [2]: 0.16 µM
SMILES: CC1(C2CC(=O)N(CCOc3ccc(F)c(F)c3)C2)CCS(=O)(=O)CC1 (racemic)

chromatographic logD [4]: 3.7
IC50 [3]: 0.26 µM
IC50 [2]: 0.16 µM
SMILES: CC1(C2CC(=O)N(CCOc3ccc(F)c(C#N)c3)C2)CCOCC1 (racemic)

chromatographic logD [4]: 2.8
SMILES: CC1([C@H]2CC(=O)N(CCOc3ccc(F)c(C#N)c3)C2)CCS(=O)(=O)CC1

Papp [6]: 210 nm/s
fraction unbound at 4 h, 10 µM [7]: 0.71
solubility kinetic [8]: > 396 µM
fraction unbound at 4 h, 10 µM [13]: 0.56
IC50 (Cytochrome P450 3A4): > 50 µM
SMILES: CN1CCC(C)(C2CC(=O)N(CCOc3ccc(F)c(C#N)c3)C2)CC1 (racemic)

Papp [6]: 36 nm/s
clearance [9]: 4.02 L/h/kg
clearance [14]: 0.66 L/h/kg
Vd [10]: 1.2 L/kg
half-life [11]: 0.34 h
chromatographic logD [4]: 3
Vd [15]: 1.3 L/kg
solubility [16]: 3500 µM (≈ 1380 µg/mL)
fraction unbound at 4 h, 10 µM [7]: 0.8
CLH [17]: 1.1 mL/min/g
solubility kinetic [8]: > 509 µM
fraction unbound at 4 h, 10 µM [13]: 0.75
half-life [18]: 1.3 h
IC50 (Cytochrome P450 3A4): > 50 µM
SMILES: CC1([C@@H]2CC(=O)N(CCOc3ccc(F)c(C#N)c3)C2)CCS(=O)(=O)CC1

chromatographic logD [4]: 1.7
SMILES: CN1CCC(C)([C@H]2CC(=O)N(CCOc3ccc(F)c(C#N)c3)C2)CC1
